Source: PMC12368606 (2025)

Key:
[1] = tested on: Seq1s-4U (RNA, hairpin) ACCGUGACGGGCCUUUUGGCUAUACGCGGU; assay: NMR solution structure and titration; settings: phosphate buffer, 5% D2O for titration
[2] = tested on: Seq1s (RNA, hairpin) ACCGUGACGGGCCUUUUUGGCUAUACGCGGU; assay: CSI-TOF mass spectrometry; settings: 40 μM NA, 5 μM RNA
[3] = tested on: Seq1s (RNA, hairpin) ACCGUGACGGGCCUUUUUGGCUAUACGCGGU; assay: UV thermal melting; settings: 10 μM NA; Tm 66.9 ± 2.0 to 72.1 ± 1.5 °C

Cc1ccc2ccc(NC(=O)CCNCCC(=O)NCc3ccc4ccc(=O)[nH]c4n3)nc2n1
binding [1]: yes | binding [2]: yes | ΔTm [3]: 5.2 °C
